Measured values published in patent EP1830856B1, “PREVENTING PATHOLOGICAL INCREASES IN THE RATE OF NERVE CELL SUICIDE IN IMMATURE NERVOUS SYSTEMS” (Olney, John W., priority 2004, dated 2006).

Legend:
[1] = tested on: apoptosis induced by anti-convulsants such as phenytoin and carbamazepine; conditions: tissue culture model; only in a dose range well above the plasma levels considered therapeutic in humans; Nonaka et al., 1998; cited from earlier work
ERK = conditions: infant mice; within less than 30 minutes after ethanol administration
AKT = conditions: infant mice; within 30 minutes after administration of ethanol
immature brains = conditions: Ikonomidou et al., 2000; cited from earlier work
[2] = tested on: neuroapoptosis triggered by a cocktail of anesthetic drugs; conditions: immature rats undergoing anesthesia; subcutaneous; Beals et al, 2003; cited from earlier work

SMILES: [Li] [Lithium]
- antiapoptotic action [1]: act as an antiapoptotic agent

SMILES: CCO [ethanol]
- activated isoforms of ERK (ERK): rapid decrease
- activated isoform of AKT (AKT): marked suppression
- neuroapoptosis responses in immature brains (immature brains): triggers especially severe neuroapoptosis responses

SMILES: COc1ccc2[nH]cc(CCNC(C)=O)c2c1 [melatonin]
- protection against pathological neuroapoptosis (effects of pretreatment) [2]: only modest
